Results: patent publication US20070289889A1, “Biomarkers For The Prediction Of Drug-In Duced Diarrhea” (NOVARTIS AG, priority 2003, published 2007)

How the values were obtained:
[1] = tested on: adult patients with advanced solid tumours; assay: Phase I open-label dose-escalation trial, maximum tolerated dose and diarrhoea; assay type: in vivo, human
Experimental: A group of eleven genes were identified as having statistically significant differences in expression levels when comparing the test samples to their respective baseline samples. […] These genes were identified following a […] dose-finding clinical trial, which was undertaken in which epothilone B was administered weekly to adult patients with advanced solid tumours. A clinical pharmacogenetics (CPG) analysis identified biomarker candidates for the incidence of epothilone B-induced diarrhoea. The analysis also identified genomic-based factors (such as mRNA expression profiles) that are associated with the incidence of epothilone B-induced diarrhoea.
The maximum tolerated dose (MTD) for a compound is determined using methods and materials known in the medical and pharmacological arts, for example through dose-escalation experiments. One or more patients is first treated with a low dose of the compound, typically 10% of the dose anticipated to be therapeutic based on results of in vitro cell culture experiments. The patients are observed for a period of time to determine the occurrence of toxicity. Toxicity is typically evidenced as the observation of one or more of the following symptoms: vomiting, diarrhoea, peripheral neuropathy, ataxia, neutropaenia, or elevation of liver enzymes. If no toxicity is observed, the dose is increased 2-fold, and the patients are again observed for evidence of toxicity. This cycle is repeated until a dose producing evidence of toxicity is reached. The dose immediately preceding the onset of unacceptable toxicity is taken as the […]. A determination of the MTD for epothilone B is provided above.
Clinical trial design. This clinical trial was an open-label, dose-escalation trial using a standard Phase I protocol design (3+3 design) of enrolling three-six patients per cohort to establish the maximum tolerated dose. Peripheral whole blood was collected from patients that consented to clinical pharmacogenetics analysis. Two clinical pharmacogenetics blood samples were scheduled: baseline and on Day 2 of Week 1 at hour 24. The core treatment period consisted of two nine-week cycles of weekly intravenous administrations of epothilone B as tolerated by haematologic and other toxicities. The doses of epothilone B used in this trial were 0.3, 0.5, 0.75, 1.1, 1.85, 2.5, 3.0 and 3.6 mg/m^2.
Clinical pharmacogenetics subjects used for the analysis. Epothilone B was administered to subjects as a single intravenous infusion over five minutes in a maximum volume of 20 ml either every week for up to six weeks followed by a three-week wash-out period, or every week for three weeks followed by one week without treatment. The 2.5 mg/m^2 treatment was considered to be the maximum tolerated dose (MTD). Therefore, twenty clinical pharmacogenetics participants who were in the 2.5, 3.0 and 3.6 mg/m^2 treatment groups and whose arrays met the quality standards were used. The rationale behind this decision was based on the assumption that those genes whose expression was affected by the 2.5 mg/m^2 treatment would be more pronounced in 3.0 and 3.6 mg/m^2 treatment groups.
Because there were only three subjects who experienced grade 3 diarrhoea, all fifteen subjects who experienced any grade of diarrhoea were grouped together to strengthen the statistical power of this analysis.

white blood cells = assay: mRNA expression profiling (Affymetrix U95A) of white blood cells, baseline vs. treated; assay type: in vivo, human
Experimental: Samples. Forty-three out of the ninety-one subjects who enrolled in the clinical trial consented to clinical pharmacogenetics analysis. For each subject, two clinical pharmacogenetics blood samples were scheduled: baseline and on Day 2 of Week 1 at hour 24. White blood cell (WBC) pellets were ficoll-hypaque separated from the whole blood by the investigator, frozen at −80° C. mRNA was extracted and profiled on the Affymetrix U95A GeneChip® platform.
mRNA expression profiling analysis. Any array with greater than 20% of genes called present by the Affymetrix MAS5 algorithm was a candidate for the analyses described herein. Affymetrix, “New statistical algorithms for monitoring gene expression on GeneChip® probe arrays.” Affymetrix Technical Notes. (2001). […] Forty-two out of the possible eighty-six arrays met the quality standards needed for analysis.
Statistical analysis. Fisher's Exact tests were performed to compare the demographics of the clinical pharmacogenetics participants to the overall trial population. An analysis of variance (ANOVA) was used to determine whether mRNA gene expression patterns correlated to either treatment status (baseline vs. treated), to experiencing diarrhoea (no diarrhoea vs. diarrhoea) or to whether specific blood cell type levels correlated to experiencing diarrhoea. All statistical analyses were performed using the SigmaStat 2.03 and SAS 8.02 programs.
Analysis of baseline vs. treated mRNA profiles by treatment group. To determine if gene expression in white blood cells was altered by epothilone B at 24 hours after treatment, a comparison between baseline and treated expression profiles was performed.

[2] = Rothermel et al. 2003; cited from earlier work
[3] = CPG subjects, grade 1 diarrhoea
[4] = of twenty CPG subjects, 2.5, 3.0 and 3.6 mg/m^2, irregardless of dose
[5] = 3.6 mg/m^2, 24 hours after treatment

SMILES: C/C(=C\c1csc(C)n1)[C@@H]1C[C@@H]2O[C@]2(C)CCC[C@H](C)[C@H](O)[C@@H](C)C(=O)C(C)(C)[C@@H](O)CC(=O)O1 [epothilone B, Epothilone B]
- mean time of experiencing the first episode of diarrhoea after receiving dose ([1]; CPG subjects): 37 days
- maximum time to first episode of diarrhoea [1, 3]: 304 days
- minimum time to first episode of diarrhoea [1, 3]: 6 days
- mean onset of diarrhoea after the scheduled blood draw ([1]; clinical pharmacogenetics (CPG) subjects): 371 ± 18 days
- subjects who experienced grade 3 diarrhoea ([1]; of twenty CPG subjects, 2.5, 3.0 and 3.6 mg/m^2): three
- subjects who did not experience diarrhoea [1, 4]: five
- subjects who experienced any grade of diarrhoea [1, 4]: fifteen
- maximum tolerated dose (MTD) ([1]; weekly intravenous infusion over five minutes): 2.5 mg/m^2
- Fold Change [treated/baseline] DAPK1 (40049_at) mRNA (white blood cells; [5]): 2.1
- Fold Change [treated/baseline] DR1 (32621_at) mRNA (white blood cells; [5]): 1.9
- Fold Change [treated/baseline] JAK1 (1457_at) mRNA (white blood cells; [5]): 1.7
- Fold Change [treated/baseline] K-ALPHA-1 (32272_at) mRNA (white blood cells; [5]): 1.7
- Fold Change [treated/baseline] MAP4K2 (187_at) mRNA (white blood cells; [5]): −1.7
- Fold Change [treated/baseline] RAP1A (1848_at) mRNA (white blood cells; [5]): 1.9
- Fold Change [treated/baseline] SURF2 (38210_at) mRNA (white blood cells; [5]): 2.4
- Fold Change [treated/baseline] TCFL4 (32578_at) mRNA (white blood cells; [5]): −1.6
- Fold Change [treated/baseline] TM9SF1 (38835_at) mRNA (white blood cells; [5]): 2.2
- Fold Change [treated/baseline] ZFP36 (40448_at) mRNA (white blood cells; [5]): 1.6
- Fold Change [treated/baseline] nuclear transcription factor Y, alpha (33297_at) mRNA (white blood cells; [5]): −1.6
- number of genes with statistically significant changes in expression, treated vs. baseline (white blood cells; 3.6 mg/m^2 treatment, 24 hours): eleven
- genes with statistically significant expression differences, treated vs. baseline (white blood cells; 2.5 and 3.0 mg/m^2 treatments, 24 hours): No genes with statistically significant differences were identified
- genes with statistically significant expression differences, treated vs. baseline (white blood cells; all treated samples combined, 24 hours after treatment): no genes with statistically significant differences were identified
- dose-limiting toxicity (diarrhoea) [2]: dose-limiting toxicity
- myelosuppression [2]: no myelosuppression
